Measurements published in US20100197605A1, “THERAPEUTIC USE OF PEPTIDE YGLF AND COMBINATION WITH KVLPVPQ” (priority 2007, published 2010).
Where no end group is shown, it is not given here.

Key:
[1] = test system: HIV-1IIIB; experiment: HIV-1 antiviral assay in CEM-SS cells (MTS readout)
[2] = test system: HCMV strain AD169; experiment: HCMV plaque formation assay in MRC-5 cells; format: cell-based
Method: Ganciclovir was used as positive control. […] The following day, peptides were added and tested in duplicates.

[3] = test system: IL-2, spleen cells; experiment: Th1/Th2 cytokine profiling assay, IL-2; format: cell-based, Balb/c mice; details: 10 micrograms per ml; Ovalbumin restimulation; 72 hours
Description: (§1) The Balb/c mice (originated in 1923, it is a popular strain and is used in many different research disciplines. Also classified as an inbred from the production of 20 or more successive brother-sister matings, the Balb/c mouse is albino and small in size) were immunized on Days 1, 15, and 29 with Ovalbumin (Ovalbumin is the main protein found in egg white, commonly used to stimulate an immunological reaction in test animals) in PBS (5 micrograms/injection). On day 50, spleens of the mice were harvested (3 weeks after last boost with Ovalbumin). […] Thereafter, additional Ovalbumin was added to the cells at 10 micrograms/ml for in vitro restimulation of the cells. 72 hours later, cell supernatants were harvested and assayed using the Becton Dickinson Mouse Th1/Th2 Cytokine CBA Kit. This kit can be used to measure Interleukin-2 (IL-2), Interleukin-4 (IL-4), Interleukin-5 (IL-5), Interferon-γ (IFN-γ), and Tumor Necrosis Factor-α (TNF-α) protein levels in a single sample.

[4] = test system: IL-4, spleen cells; experiment: Th1/Th2 cytokine profiling assay, IL-4; format: cell-based, Balb/c mice; details: 10 micrograms per ml; Ovalbumin restimulation; 72 hours
Description: as §1

[5] = test system: cyclic AMP generation in human peripheral blood mononuclear cells (PBMC); experiment: cAMP induction assay (ELISA); format: cell-based; details: single peptide, 10 min at 37° C.
Method: The cAMP kit was used as an immunoassay for the quantitative determination of cyclic AMP generation in human peripheral blood mononuclear cells (PBMC). PBMC were placed in 96-well microtitier plates (50 microliters of cells at 4×10^6/ml) and 50 microliters of medium alone (background control), forskolin (cAMP positive control; 50 micrograms per ml), or test peptides were added. Plates were mixed and incubated for 10 min at 37° C. and the cells were lysed by the addition of 50 microliters of 3% perchloric acid. NaOH was added to neutralize the samples. Plates were centrifuged for 15 min at 2500 rpm and the supernatants removed. The supernatants (diluted 2-fold in assay buffer) were then assayed for the levels of cAMP by ELISA.

[6] = test system: IFNγ, spleen cells; experiment: Th1/Th2 cytokine profiling assay, IFNγ; format: cell-based, Balb/c mice; details: 10 micrograms per ml; Ovalbumin restimulation; 72 hours
Description: as §1

[7] = test system: HUVEC; experiment: Endothelial tube formation assay; format: cell-based, human; details: 10 micrograms per ml, single peptide, 20 hours
Description: Positive control was vehicle only.

[8] = test system: TNF-a, spleen cells; experiment: Th1/Th2 cytokine profiling assay, TNF-a; format: cell-based, Balb/c mice; details: 10 micrograms per ml; Ovalbumin restimulation; 72 hours
Description: as §1

[9] = test system: RAW 264.7 cells; experiment: Phagocytosis assay (Fluorescein-labeled Escherichia coli, flow cytometry); details: 10 micrograms per ml, single peptide, 30 min preincubation, 60 min ingestion
Method: RAW 264.7 (Mouse leukaemic monocyte macrophage cell line) cells were obtained from ATCC and grown in RPMI 1640 medium containing 10% FBS. Cells were incubated in 12×75 mm tubes at 37° C. with test peptides—10 micrograms per ml—for 30 min prior to adding Fluorescein-labeled Escherichia coli bacteria as the agent to be ingested. After the cells were incubated for additional 60 min at 37° C. and allowed to ingest the Fluorescein-labeled Escherichia coli bacteria, cells were fixed with 1% paraformaldehyde. The samples were then analyzed by flow cytometry to determine the amount of phagocytosis as a function of brightness (the greater the phagocytic activity, the more fluorescence in the macrophage population). Data are reported as % positive and the mean fluorescence intensity (MFI) of positively stained cells.

[10] = test system: IL-5, spleen cells; experiment: Th1/Th2 cytokine profiling assay, IL-5; format: cell-based, Balb/c mice; details: 10 micrograms per ml; Ovalbumin restimulation; 72 hours
Description: as §1

[11] = test system: hepatitis B virus (HBV) ayw strain; experiment: HBV experimental assay system, HepG2-2.2.15, secreted HBV DNA by TaqMan PCR; format: cell-based; details: 10 micrograms per ml, six days, HBV DNA in supernatant
[12] = test system: Human Peripheral Blood Mononuclear Cells (PBMC), B cell proliferation; experiment: B cell proliferation assay (SAC plus Interleukin-2 stimulated PBMC, 3H-thymidine); format: cell-based; details: 10 micrograms per ml; single peptide; SAC plus IL-2
Method: Human Peripheral Blood Mononuclear Cells (PBMC) were obtained from normal human donors. The B cell proliferation was induced by stimulation of the cells with the B cell mitogen Staphylococcus aureus Cowans I (SAC) plus Interleukin-2, either in the absence (positive proliferation control), or in the presence of test peptides—10 micrograms per ml—to examine their effects on the B cell response. 10^5/well PBMC were plated in 96-well microtiter plates and assayed in duplicate with the peptides. […] At the end of incubation time, the plates were harvested and the cells counted by liquid scintillation for the incorporation of ^3H-thymidine as a measure of B cell proliferation.

Cc1cn([C@H]2C[C@H](N=[N+]=[N-])[C@@H](CO)O2)c(=O)[nH]c1=O [AZT]
antiviral activity of positive control compounds [1]: expected levels of antiviral activity

Nc1nc(O)c2ncn(COC(CO)CO)c2n1 [Ganciclovir]
antiviral activity of positive control compound [2]: expected levels of antiviral activity

CC(C)(C)NC(=O)[C@@H]1CN(Cc2cccnc2)CCN1C[C@@H](O)C[C@@H](Cc1ccccc1)C(=O)N[C@H]1c2ccccc2C[C@H]1O [indinavir]
antiviral activity of positive control compounds [1]: expected levels of antiviral activity

Lys-Val-Leu-Pro-Val-Pro-Gln-OH (KVLPVPQ-OH) [peptide 2]
IL-2 spleen cells (% of control) [3]: 67.3 % of control | IL-4 spleen cells; TH2 response (% of control) [4]: 94.9 % of control | induction of cAMP formation in human peripheral blood cells [5]: 4.1% | IFNγ spleen cells; TH1 response (% of control) [6]: 41.5 % of control | inhibition of the tube formation of endothelial cells [7]: 15% | TNF-a spleen cells; TH1 response (% of control) [8]: 90.3 % of control | increase of the phagocytic activity of murine macrophages [9]: 20.0% | IL-5 spleen cells; TH2 response (% of control) [10]: 61.6 % of control

Tyr-Gly-Leu-Phe-OH (YGLF-OH) [peptide 1]
IL-2 spleen cells (% of control) [3]: 0.0 % of control | IL-4 spleen cells; TH2 response (% of control) [4]: 0.0 % of control | induction of cAMP formation in human peripheral blood cells [5]: 5.1% | inhibition of HBV replication as compared to the virus control infection [11]: no effect | IFNγ spleen cells; TH1 response (% of control) [6]: 58.6 % of control | inhibition of the tube formation of endothelial cells [7]: 24% | TNF-a spleen cells; TH1 response (% of control) [8]: 78.9 % of control | increase of the phagocytic activity of murine macrophages [9]: no inhibitory or activating effects | IL-5 spleen cells; TH2 response (% of control) [10]: 51.1 % of control | inhibition of the proliferation of specifically stimulated human B-cells [12]: 18%
